These results are taken from patent publication US11312704B2, “Inhibitors of cysteine proteases and methods of use thereof” (priority 2020, dated 2022).

In one data set the target is 229E mPRO (Human coronavirus 229E (HCoV-229E), UniProt P0C6X1). Description: 229E mPRO enzymatic assay. The class given is biochemical, Human Coronavirus (HCov) 229E.
The test system of the next data set is HCoV 229E. The experiment in a line: HCoV 229E cytopathic effect (CPE) assay. The class given is cell-based, Human Coronavirus (HCov) 229E. The conditions noted are these: CellTiter Glo. On the technique in general: Protection from cytopathic effect is a common read-out in antiviral testing.
Data set [1] concerns cell viability without virus infection. Description: Cytotoxicity under the 229E CPE conditions without virus infection (CellTiter Glo). Conditions: read-out: 229E CC50. In general terms: Cellular ATP, detected with luciferase, serves as a proxy for viable cell number.
For a further data set, the target named is SARS-COV2 Mpro (Severe acute respiratory syndrome coronavirus 2 (2019-nCoV) (SARS-CoV-2), UniProt P0DTD1). The experiment in a line: SARS-CoV2 Mpro enzymatic assay. The class given is biochemical. Conditions: 25 nM Mpro, 25 μM substrate.

Read-outs that look alike come from different tables or passages of the source.

229E mPRO, sequence (P0C6X1 2966-3267 limits assumed): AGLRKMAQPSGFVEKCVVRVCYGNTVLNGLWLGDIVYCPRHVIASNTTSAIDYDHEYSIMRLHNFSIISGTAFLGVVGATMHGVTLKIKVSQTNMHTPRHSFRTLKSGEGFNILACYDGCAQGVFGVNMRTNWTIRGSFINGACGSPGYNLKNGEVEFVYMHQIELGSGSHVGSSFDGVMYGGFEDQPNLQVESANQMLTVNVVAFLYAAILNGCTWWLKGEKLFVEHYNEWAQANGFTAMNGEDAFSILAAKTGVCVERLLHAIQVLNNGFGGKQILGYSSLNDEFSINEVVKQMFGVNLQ
Procedure for 229E mPRO: Compounds were assayed using standard methods to assess compound activity and IC50. […] The assay buffer contained 20 mM of Tris-HCl (pH 7.3), 100 mM of NaCl, 1 mM of EDTA, 5 mM of TCEP and 0.1% BSA.
The compounds were added to an assay plate.
IC50 values of compounds were calculated with the GraphPad Prism software using the nonlinear regression model of log(inhibitor) vs. response—Variable slope (four parameters). The inhibition activity was calculated using the formula below, IC50 values was calculated using the Inhibition % data. Inhibition %=[(Sample-Average ZPE)/(Average HPE-Average ZPE)]*100%^#
Procedure for HCoV 229E: The antiviral activity of compounds was calculated based on the protection of the virus-induced CPE at each concentration normalized by the virus control.
Reagents and instruments used in this assay include luminescent cell viability assay kit CellTiter Glo (Promega) and Microplate Reader Synergy2 (BioTek).
Cytopathic effect (CPE) was measured by CellTiter Glo following the manufacturer's manual. The antiviral activity of compounds was calculated based on the protection of the virus-induced CPE at each concentration normalized by the virus control.

On to `COc1cccc2[nH]c(C(=O)N[C@@H](CC3CC3)C(=O)N[C@H](C#N)C[C@@H]3CCCNC3=O)cc12` (single isomer, unassigned) [491 (Isomer 1)], for which the IC50 (usually the concentration at which inhibition is half-maximal) on 229E mPRO (read-out: 229E mPRO IC50) is below 2 µM.

Regarding `CCCOc1cccc2[nH]c(C(=O)N[C@@H](CC(C)C)C(=O)N[C@H](C#N)C[C@@H]3CCNC3=O)cc12` [Compound 379], the EC50 (usually the concentration that produces a half-maximal response) with HCoV 229E is below 2 µM. Besides, at 229E mPRO (read-out: 229E mPRO IC50), the IC50 was below 2 µM.

Turning to `CC(C)CC(NC(=O)c1nc2ncccc2[nH]1)C(=O)NC(C#N)CC1CCNC1=O` (single isomer, unassigned) [130 (Isomer 1)], in data set [1], the CC50 (usually the concentration that lowers cell viability or growth by half) is above 30 µM.

Turning to `COc1cccc2[nH]c(C(=O)N[C@@H](CC(C)C)C(=O)N[C@H](C#N)Cc3cn(C)cn3)cc12` [Compound 227, N-[(1S)-1-[[(1S)-1-cyano-2-(1-methylimidazol-4-yl)ethyl]carbamoyl]-3-methyl-butyl]-4-methoxy-1H-indole-2-carboxamide], the IC50 at 229E mPRO (read-out: 229E mPRO IC50) is above 30 µM.

Regarding `COc1cccc2[nH]c(C(=O)N[C@@H](CC(C)C)C(=O)N[C@@H](C[C@@H]3CCNC3=O)C(C#N)N3CCCC3)cc12` (single isomer, unassigned) [331 (Isomer 2)], the IC50 at 229E mPRO (read-out: 229E mPRO IC50) was below 2 µM.

Compound `COc1cccc2[nH]c(C(=O)N[C@H](CC3CC3)C(=O)N[C@H](C#N)C[C@@H]3CCCNC3=O)cc12` (single isomer, unassigned) [491A (Isomer 2)] returned an IC50 on 229E mPRO below 2 µM.

In the data set with HCoV 229E, `COc1cccc2[nH]c(C(=O)N3C[C@H](c4ccccc4)C[C@H]3C(=O)N[C@@H](C[C@@H]3CCNC3=O)C(O)C#N)cc12` (single isomer, unassigned) [345 (Isomer 2)] registered an EC50 below 2 µM.

In the data set on HCoV 229E, `N#C[C@H](C[C@@H]1CCCNC1=O)NC(=O)[C@H](CC1CC1)NC(=O)c1nc2c(Cl)ccc(Cl)c2[nH]1` [Compound 637, 4,7-dichloro-N-[(1S)-2-[[(1S)-1-cyano-2-[(3S)-2-oxo-3-piperidyl]ethyl]amino]-1-(cyclopropylmethyl)-2-oxo-ethyl]-1H-benzimidazole-2-carboxamide] yielded an EC50 below 2 µM.

`N#C[C@H](C[C@@H]1CCCNC1=O)NC(=O)[C@H](CC1CC1)NC(=O)c1cc2ccc(Cl)cc2[nH]1` [Compound 635, 6-Chloro-N-[(1S)-2-[[(1S)-1-cyano-2-[(3S)-2-oxo-3-piperidyl]ethyl]amino]-1-(cyclopropylmethyl)-2-oxo-ethyl]-1H-indole-2-carboxamide] came in with an EC50 with HCoV 229E below 2 µM.

The compound `CC(C)(C)C[C@H](NC(=O)c1cc2ccc(Cl)cc2[nH]1)C(=O)N[C@H](C#N)C[C@@H]1CCCNC1=O` [Compound 745] came in with an EC50 with HCoV 229E below 2 µM.

For `COc1cccc2[nH]c(C(=O)N3C[C@H](c4ccccc4)CC3C(=O)N[C@H](C=O)C[C@@H]3CCNC3=O)cc12` (some centres unmarked) [Compound 344A], in the data set with HCoV 229E, the EC50 was below 2 µM.

Turning to `COc1cccc2[nH]c(C(=O)N[C@@H](CC(C)(C)C)C(=O)N[C@H](C#N)C[C@@H]3CCNC3=O)cc12` [Compound 405, N-[(1S)-1-[[(1S)-1-cyano-2-[(3S)-2-oxopyrrolidin-3-yl]ethyl]carbamoyl]-3,3-dimethyl-butyl]-4-methoxy-1H-indole-2-carboxamide], the EC50 with HCoV 229E was below 2 µM.

In the data set on HCoV 229E, `CCNC(C#N)[C@H](C[C@@H]1CCNC1=O)NC(=O)[C@H](CC(C)C)NC(=O)c1cc2c(OC)cccc2[nH]1` (single isomer, unassigned) [511 (Isomer 1)] yielded an EC50 below 2 µM. In addition, the IC50 on 229E mPRO (read-out: 229E mPRO IC50) is below 2 µM.

In the data set with HCoV 229E, `CC(C)C[C@H](NC(=O)c1nc2ccccc2[nH]1)C(=O)N[C@H](C#N)C[C@@H]1CCNC1=O` [Compound 103, N-[(1S)-1-[[(1S)-1-cyano-2-[(3S)-2-oxopyrrolidin-3-yl]ethyl]carbamoyl]-3-methyl-butyl]-1H-benzimidazole-2-carboxamide] yielded an EC50 below 2 µM.

Regarding `COc1cccc2[nH]c(C(=O)N3CC(C45CC(C4)C5)C[C@H]3C(=O)N[C@H](C#N)C[C@@H]3CCNC3=O)cc12` (single isomer, unassigned) [385 (Isomer 1)], the EC50 with HCoV 229E was below 2 µM.

`COc1cccc2[nH]c(C(=O)N[C@@H](CC(C)C)C(=O)N[C@@H](C[C@@H]3CCNC3=O)C(C#N)NCc3ccccc3)cc12` (single isomer, unassigned) [507 (Isomer 1.1)]: in the data set with HCoV 229E, the EC50 was below 2 µM.

The compound `COc1cccc2[nH]c(C(=O)N3CC4(CC4)C[C@H]3C(=O)N[C@H](C#N)C[C@@H]3CCNC3=O)cc12` [Compound 397] displayed an EC50 in the data set on HCoV 229E below 2 µM.

In the data set on HCoV 229E, `CC(C)C[C@H](NC(=O)c1nc2c(OC(F)(F)F)cccc2[nH]1)C(=O)N[C@H](C#N)C[C@@H]1CCNC1=O` [Compound 363] displayed a half-maximal effective concentration (EC50) below 2 µM.

In the data set with HCoV 229E, `COc1cccc2[nH]c(C(=O)N[C@@H](CC(C)C)C(=O)N[C@@H](C[C@@H]3CCNC3=O)C(C#N)N3CCCC3)cc12` (single isomer, unassigned) [331 (Isomer 1)] returned an EC50 below 2 µM.

For `CC(C)(C)C[C@H](NC(=O)c1cc2c(Cl)ccc(Cl)c2[nH]1)C(=O)N[C@H](C#N)C[C@@H]1CCCNC1=O` [Compound 735], the EC50 in the data set on HCoV 229E was below 2 µM.

`COc1cccc2[nH]c(C(=O)N3CC4(CCC4)CC3C(=O)N[C@H](C#N)C[C@@H]3CCCNC3=O)cc12` (single isomer, unassigned) [719 (Isomer 2)] yielded an EC50 with HCoV 229E below 2 µM. Also, the IC50 on 229E mPRO (read-out: 229E mPRO IC50) and on SARS-COV2 Mpro was below 2 µM each time.

In the data set on HCoV 229E, `COc1cccc2[nH]c(C(=O)N[C@@H](CC(C)C)C(=O)N[C@@H](C[C@@H]3CCNC3=O)C(O)C#N)cc12` (single isomer, unassigned) [134 (Isomer 1)] displayed a concentration giving a half-maximal response (EC50) below 2 µM.

As to `CCNC(C#N)[C@H](C[C@@H]1CCNC1=O)NC(=O)[C@H](CC(C)C)NC(=O)c1cc2c(OC)cccc2[nH]1` (single isomer, unassigned) [511 (Isomer 2)], the IC50 on 229E mPRO (read-out: 229E mPRO IC50) is below 2 µM.

Turning to `COc1cccc2[nH]c(C(=O)N[C@@H](CC(C)C)C(=O)N[C@@H](C[C@@H]3CCNC3=O)C(C#N)Nc3ccccc3)cc12` (some centres unmarked) [Compound 327], the IC50 at 229E mPRO (read-out: 229E mPRO IC50) and on SARS-COV2 Mpro was below 2 µM in each case.

As to `COc1ccc(Cl)c2[nH]c(C(=O)N[C@@H](CC(C)(C)C)C(=O)N[C@H](C#N)C[C@@H]3CCCNC3=O)cc12` [Compound 737], the half-maximal effective concentration (EC50) in the data set with HCoV 229E was below 2 µM.

The compound `CCNC(C#N)[C@H](C[C@@H]1CCNC1=O)NC(=O)[C@H](CC(C)C)NC(=O)c1cc2c(OC)cccc2[nH]1` (stereo partly drawn) [Compound 511, N-[(1S)-1-[[(1S)-2-cyano-2-(ethylamino)-1-[[(3S)-2-oxopyrrolidin-3-yl]methyl]ethyl]carbamoyl]-3-methyl-butyl]-4-methoxy-1H-indole-2-carboxamide] showed an EC50 in the data set with HCoV 229E below 2 µM.

`N#C[C@H](C[C@@H]1CCCNC1=O)NC(=O)[C@H](CC1CC1)NC(=O)c1cc2cccc(Cl)c2[nH]1` (single isomer, unassigned) [639 (Isomer 1)] yielded a concentration for a half-maximal effect (EC50) in the data set on HCoV 229E below 2 µM. The IC50 on 229E mPRO (read-out: 229E mPRO IC50) was below 2 µM.

As for `COc1cccc2[nH]c(C(=O)N3C[C@H](OC)C[C@H]3C(=O)N[C@H](C#N)C[C@@H]3CCNC3=O)cc12` [Compound 407], in the data set on HCoV 229E, the EC50 was below 2 µM. The IC50 on 229E mPRO (read-out: 229E mPRO IC50) was below 2 µM.

As for `COc1cccc2[nH]c(C(=O)N[C@@H](CC(C)C)C(=O)N[C@@H](C[C@@H]3CCNC3=O)C(N)C#N)cc12` (stereo partly drawn) [Compound 344C, N-[(1S)-1-[[(1S)-2-amino-2-cyano-1-[[(3S)-2-oxopyrrolidin-3-yl]methyl]ethyl]carbamoyl]-3-methyl-butyl]-4-methoxy-1H-indole-2-carboxamide], the EC50 in the data set on HCoV 229E is below 2 µM.

In turn, `CC(C)C[C@H](NC(=O)c1cc2c(OC(F)(F)F)cccc2[nH]1)C(=O)N[C@H](C#N)C[C@@H]1CCNC1=O` [Compound 361] returned an EC50 in the data set with HCoV 229E below 2 µM.

As for `COc1cccc2[nH]c(C(=O)N[C@@H](CC3CCC3)C(=O)N[C@H](C#N)C[C@@H]3CCNC3=O)cc12` [Compound 577], the EC50 with HCoV 229E was below 2 µM.
